Data reported in patent US20230057847A1, “GLP2 RECEPTOR AGONISTS AND METHODS OF USE” (The Scripps Research Institute, priority 2019, published 2023).

Columns and labels:
[1] = system: mouse model of acute colitis; assay: DSS-induced acute colitis in C57BL/6 mice (GLP2-2G-10Nle-1K-EX4-K5)
Description: (§2) Each group contained 6 mice, except for group A, which contained 4.
(§3) The body weight was monitored daily. If animals lost more than 20% of their bodyweight, they were euthanized. […] On day 11, animals were euthanized, and a necropsy was performed. The terminal bleed was collected into a heparinized collection tube and processed into plasma. The small intestine and colon were collected to measure weight and length. GI tissues were collected for histology.

mouse GLP2R = target: T1, mouse GLP2R (Mus musculus, UniProt Q5IXF8); assay: In vitro potency on mouse GLP2R (cAMP, 665/615 ratio); format: cell-based; conditions: read-out: mGLP-2R IC50
T1 sequence (Q5IXF8 1-512): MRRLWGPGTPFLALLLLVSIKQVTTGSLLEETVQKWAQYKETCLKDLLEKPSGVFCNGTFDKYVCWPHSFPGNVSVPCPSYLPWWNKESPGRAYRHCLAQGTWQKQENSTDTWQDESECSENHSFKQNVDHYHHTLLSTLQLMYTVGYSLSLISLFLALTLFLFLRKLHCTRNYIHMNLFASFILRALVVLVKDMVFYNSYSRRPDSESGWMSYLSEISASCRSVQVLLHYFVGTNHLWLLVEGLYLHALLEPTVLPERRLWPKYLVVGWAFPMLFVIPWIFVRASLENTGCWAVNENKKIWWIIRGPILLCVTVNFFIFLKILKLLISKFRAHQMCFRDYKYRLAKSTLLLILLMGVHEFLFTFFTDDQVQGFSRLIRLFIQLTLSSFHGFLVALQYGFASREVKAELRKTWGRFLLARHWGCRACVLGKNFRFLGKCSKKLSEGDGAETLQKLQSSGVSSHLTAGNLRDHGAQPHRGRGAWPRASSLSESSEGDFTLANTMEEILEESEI
Description: To determine the potency of the long-acting GLP2R agonists against mouse GLP2R.

[2] = system: mouse model of environmental enteric dysfunction (EED); assay: Weaning undernutrition mouse model of environmental enteric dysfunction (EED); format: in vivo, mice
Description: A weaning undernutrition model was used to assess the ability of GLP2-2G-10Nle-1K-EX4-K5 to treat environmental enteric dysfunction (EED). All dams were placed on an isocaloric Northeast Brazil (Regional Basic Diet—RBD), which was moderately deficient in protein, fat and minerals when their pups were 10 days old. At weaning (3 weeks of age), pups were placed on either a standard control diet (CD) or continued on RBD. At 4 weeks of age, weanlings were given drug or placebo (0.1 mg/kg formulated in PBS (vehicle)) once a day subcutaneously for 2-3 weeks. Bodyweight and food consumption were measured twice weekly. Stool was collected at weaning, 6 weeks of age, and 8 weeks of age for calorimetry and microbiome. Oral FITC-dextran was used as a measurement of barrier function. At 6 weeks of age, mice were euthanized, and jejunal tissue was collected for morphology, immunohistochemistry, and for chamber analysis of transmucosal resistance and permeability.

[3] = system: mouse model of chronic colitis; assay: Chronic DSS-induced colitis in C57BL/6 mice (GLP2-2G-1-EX4-L5A); format: in vivo; conditions: 0.1 and 0.3 mg/kg SC QD 7 days, teduglutide 0.3 mg/kg SC QD
Description: Animals were treated daily for 7 days during the last DSS-induction cycle. Treatment was administered either subcutaneously (S) or intraperitoneally (IP) either once daily (QD) or twice daily (BID).
(§1) Bodyweight was monitored 3 times a week. Pharmacokinetic collection occurred 3 and 4 days prior to necropsy. At day 33, a necropsy was performed, and measurements were taken. These measurement included collecting terminal bleed; dissecting out the small intestine; measuring the length and weight of the small intestine; and recording the length and weight of the empty large intestine.

[4] = system: mouse model of acute colitis; conditions: in vivo
Description: as §2, §3

[5] = system: chronic DSS-induced colitis model; assay: Chronic DSS-induced colitis in C57BL/6 mice (GLP2-2G-10Nle-1-Ex4-L5A); format: in vivo; conditions: teduglutide 0.5 mg/kg BID
Description: as §1, with “Treatment was administered either subcutaneously (S) or intraperitoneally (IP) either once daily (QD) or twice daily (BID). […] Bodyweight” for “Bodyweight”, “Pharmacokinetic collection occurred 3 and 4 days prior to necropsy.” left out

cyno monkey GLP2R = target: T2, cyno monkey GLP2R (Macaca fascicularis, UniProt G1E7B0); assay: In vitro potency on cyno monkey GLP2R (665/615 ratio); format: cell-based
T2 sequence (G1E7B0 1-553): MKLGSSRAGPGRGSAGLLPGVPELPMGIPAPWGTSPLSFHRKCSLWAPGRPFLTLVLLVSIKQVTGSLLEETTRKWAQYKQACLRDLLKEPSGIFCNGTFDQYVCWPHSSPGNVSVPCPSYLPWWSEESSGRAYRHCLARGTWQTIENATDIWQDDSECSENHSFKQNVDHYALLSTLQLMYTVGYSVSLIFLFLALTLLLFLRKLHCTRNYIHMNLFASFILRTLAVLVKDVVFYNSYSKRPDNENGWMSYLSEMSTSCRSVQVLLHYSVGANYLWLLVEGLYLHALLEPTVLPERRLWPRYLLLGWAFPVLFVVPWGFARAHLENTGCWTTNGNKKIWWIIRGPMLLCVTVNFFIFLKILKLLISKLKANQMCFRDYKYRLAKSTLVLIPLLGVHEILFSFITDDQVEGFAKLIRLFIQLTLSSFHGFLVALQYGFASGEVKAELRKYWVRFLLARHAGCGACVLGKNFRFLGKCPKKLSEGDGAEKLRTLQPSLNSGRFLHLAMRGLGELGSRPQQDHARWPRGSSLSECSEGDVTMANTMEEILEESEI

For `CC[C@H](C)[C@H](NC(=O)[C@H](Cc1ccccc1)NC(=O)[C@H](CC(=O)O)NC(=O)[C@H](CCCNC(=N)N)NC(=O)[C@H](C)NC(=O)[C@H](C)NC(=O)[C@H](CC(C)C)NC(=O)[C@H](CC(N)=O)NC(=O)[C@H](CC(=O)O)NC(=O)[C@H](CC(C)C)NC(=O)[C@@H](NC(=O)[C@@H](NC(=O)[C@H](CC(N)=O)NC(=O)[C@H](CCSC)NC(=O)[C@H](CCC(=O)O)NC(=O)[C@H](CC(=O)O)NC(=O)[C@H](CO)NC(=O)[C@H](Cc1ccccc1)NC(=O)[C@H](CO)NC(=O)CNC(=O)[C@H](CC(=O)O)NC(=O)CNC(=O)[C@@H](N)Cc1c[nH]cn1)[C@@H](C)O)[C@@H](C)CC)C(=O)N[C@@H](CC(N)=O)C(=O)N[C@@H](Cc1c[nH]c2ccccc12)C(=O)N[C@@H](CC(C)C)C(=O)N[C@H](C(=O)N[C@@H](CCC(N)=O)C(=O)N[C@H](C(=O)N[C@@H](CCCCN)C(=O)N[C@H](C(=O)N[C@H](C(=O)N[C@@H](CC(=O)O)C(=O)O)[C@@H](C)O)[C@@H](C)CC)[C@@H](C)O)[C@@H](C)CC` [Teduglutide, teduglutide, reference compound], the bodyweight over time ([1]; 3% DSS 5 days, daily treatment 11 days, K5 0.1-1 mg/kg SC, teduglutide 0.5 mg/kg SC, cyclosporin 20 mg/kg IP) was “did not exhibit significant changes in bodyweight”, the “small intestine length and weight” value ([1]; groups C-F vs untreated mice) was “significantly increased” and the colon length ([1]; groups D-F (K5 0.3, 1 mg/kg; teduglutide 0.5 mg/kg) vs group B) was “significantly increased”. For the same compound, the villus height ([1]; jejunum, groups C-F vs untreated mice (groups A-B)) was “significant increase”, the IC50 (mouse GLP2R) was 70 pM and the “intestinal permeability (FITC-dextran)” value ([2]; CD females vs untreated) was “significant decreases in permeability”. The “small intestine wet body weight/body weight” value ([2]; CD females vs untreated) was “significant increase”, the crypt depths ([2]; CD males vs untreated) was “longer crypt depths” and the “intestinal permeability (FITC-dextran)” value ([2]; CD males vs untreated) was “trend towards decreased permeability”. The “small intestine wet body weight/body weight” value ([2]; CD males vs untreated) was “significant increase”, the villus heights ([2]; CD males vs untreated) was “significantly longer villus heights” and the “intestinal permeability (FITC-dextran)” value ([2]; RBD females or RBD males vs untreated) was “did not significantly affect the permeability”. For the same compound, the “small intestine wet body weight/body weight” value ([2]; RBD males vs untreated) was “significant increase”, the “length of the small intestine” value ([2]; animals weaned to CD and to RBD diet, vs untreated) was “significant increase” and the weight gain ([2]; male and female RBD mice weaned to CD, 0.1 mg/kg SC once a day) was “trends towards greater weight gain”. For the same compound, the weight ([2]; male and female mice weaned to RBD, 0.1 mg/kg SC once a day) was “trends towards worsening weight”, the bodyweight loss [3] was “did not show the same loss in percent of bodyweight” and the “detectability in plasma after dosing” value [4] was “not detectable after 3 hours post treatment”. For the same compound, the colon length ([5]; doses of 0.1 mg/kg and higher, vs group B) was “significantly increased”, the small intestine length ([5]; doses of 0.1 mg/kg and higher, vs untreated) was “significant increases” and the colon weight ([5]; doses of 0.3 mg/kg or higher, vs untreated) was “increased”. It also gave an EC50 (cyno monkey GLP2R) of 9 pM.
